Results published in PubChem BioAssay (NCI).
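Briefly, cells in 96-well plates were exposed to five compound concentrations for 48 h, and endpoints were estimated by linear interpolation. Abbreviation: GI50, concentration required for 50% inhibition of growth. TGI: total growth inhibition.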

How the values were obtained:
Experiment in all cases: NCI tumour cell line growth inhibition, 48 h
DLD-1 colon = system: DLD-1 colon
DMS 273 small cell lung = system: DMS 273 small cell lung
KM20L2 colon = system: KM20L2 colon
LXFL 529 NSCLC = system: LXFL 529 NSCLC
XF 498 CNS = system: XF 498 CNS
HOP-18 NSCLC = system: HOP-18 NSCLC
M19-MEL melanoma = system: M19-MEL melanoma
SNB-78 CNS = system: SNB-78 CNS
RXF-631 renal = system: RXF-631 renal
P388/ADR leukemia = system: P388/ADR leukemia
SN12K1 renal = system: SN12K1 renal

With `CSCCOC(=O)C(=[N+]=[N-])c1ccc([N+](=O)[O-])cc1` the TGI (DLD-1 colon) was > 100 µM, the TGI (DMS 273 small cell lung) was > 100 µM and the TGI (KM20L2 colon) was > 100 µM. The TGI (LXFL 529 NSCLC) was > 100 µM and the TGI (XF 498 CNS) was > 100 µM.

`OC1C2CCC1C1C3C=CC(C3)C21` (configuration not stated) was tested, and the TGI (DLD-1 colon) was > 100 µM, the TGI (DMS 273 small cell lung) was > 100 µM and the TGI (HOP-18 NSCLC) was > 100 µM. The TGI (KM20L2 colon) was > 100 µM, the TGI (LXFL 529 NSCLC) was > 100 µM and the TGI (M19-MEL melanoma) was > 100 µM. The TGI (SNB-78 CNS) was > 100 µM and the TGI (XF 498 CNS) was > 100 µM.

Molecule `CCC[CH2][Sn]1([CH2]CCC)[O]C(=O)c2ccc(C)cc2[O]1` has a GI50 (DLD-1 colon) of 0.658 µM, a TGI (DLD-1 colon) of 1.98 µM and a GI50 (DMS 273 small cell lung) of 0.55 µM. The TGI (DMS 273 small cell lung) was 2.62 µM, the GI50 (HOP-18 NSCLC) was 1.01 µM and the TGI (HOP-18 NSCLC) was 2.19 µM. The GI50 (KM20L2 colon) was 1.21 µM, the TGI (KM20L2 colon) was 2.46 µM and the GI50 (LXFL 529 NSCLC) was 0.158 µM. The TGI (LXFL 529 NSCLC) was 0.372 µM, the GI50 (M19-MEL melanoma) was 0.322 µM and the TGI (M19-MEL melanoma) was 1.33 µM. It also gave a GI50 (RXF-631 renal) of 0.138 µM, a TGI (RXF-631 renal) of 0.32 µM and a GI50 (SNB-78 CNS) of 0.526 µM. The TGI (SNB-78 CNS) was 2.34 µM.

`C[n+]1ccc(-c2c3nc(c(-c4cc[n+](C)cc4)c4ccc([n-]4)c(-c4cc[n+](C)cc4)c4nc(c(-c5cc[n+](C)cc5)c5ccc2[n-]5)C=C4)C=C3)cc1.[I-].[Zn+2]` showed a GI50 (DLD-1 colon) of 29.3 µM, a TGI (DLD-1 colon) of 84.3 µM and a GI50 (DMS 273 small cell lung) of 33.7 µM. For the same molecule, the TGI (DMS 273 small cell lung) was > 100 µM, the GI50 (HOP-18 NSCLC) was 16.9 µM and the TGI (HOP-18 NSCLC) was 41.3 µM. The GI50 (KM20L2 colon) was 23.1 µM, the TGI (KM20L2 colon) was > 100 µM and the GI50 (LXFL 529 NSCLC) was 20.1 µM. For the same molecule, the TGI (LXFL 529 NSCLC) was 43 µM, the GI50 (M19-MEL melanoma) was 10.3 µM and the TGI (M19-MEL melanoma) was 28.3 µM. The GI50 (RXF-631 renal) was 17.1 µM, the TGI (RXF-631 renal) was 46.8 µM and the GI50 (SNB-78 CNS) was 23.3 µM. It also gave a TGI (SNB-78 CNS) of 69.6 µM.

For `CC1OC(OC2C(CO)OC(O[C@H]3CC[C@@]4(C)C(=CC[C@H]5[C@@H]6C[C@@H]7O[C@]8(CC[C@@H](C)CN8)[C@@H](C)[C@@H]7[C@@]6(C)CC[C@@H]54)C3)C(O)C2O)C(O)C(O)C1O` (some centres not stated), the TGI (DLD-1 colon) was > 100 µM, the TGI (DMS 273 small cell lung) was > 100 µM and the TGI (HOP-18 NSCLC) was > 100 µM. For the same molecule, the TGI (KM20L2 colon) was > 100 µM, the TGI (LXFL 529 NSCLC) was > 100 µM and the TGI (M19-MEL melanoma) was > 100 µM. The TGI (SNB-78 CNS) was > 100 µM and the TGI (XF 498 CNS) was > 100 µM.

With `CC(C)(C)OC(=O)NC(CO)c1cccc(OCc2ccccc2)c1` (configuration not stated) the TGI (DLD-1 colon) was > 100 µM, the TGI (DMS 273 small cell lung) was > 100 µM and the TGI (HOP-18 NSCLC) was > 100 µM. For the same molecule, the TGI (KM20L2 colon) was > 100 µM, the TGI (LXFL 529 NSCLC) was > 100 µM and the TGI (M19-MEL melanoma) was > 100 µM. For the same molecule, the TGI (SNB-78 CNS) was > 100 µM and the TGI (XF 498 CNS) was > 100 µM.

In the case of `CC[C@@H]1C[C@H]2CC3c4[nH]c5ccc(O)cc5c4CCN(C2)C31`, the TGI (DMS 273 small cell lung) is reported as > 100 µM, the TGI (HOP-18 NSCLC) is reported as > 100 µM and the TGI (KM20L2 colon) is reported as > 100 µM. For the same molecule, the TGI (LXFL 529 NSCLC) was > 100 µM, the TGI (M19-MEL melanoma) was > 100 µM and the TGI (RXF-631 renal) was > 100 µM. For the same molecule, the TGI (SNB-78 CNS) was > 100 µM and the TGI (XF 498 CNS) was > 100 µM.

In the case of `O=c1oc(=O)c2oc3ccccc3oc1=2`, the TGI (DLD-1 colon) is reported as > 100 µM, the TGI (DMS 273 small cell lung) is reported as > 100 µM and the TGI (HOP-18 NSCLC) is reported as > 100 µM. The TGI (KM20L2 colon) was > 100 µM, the TGI (LXFL 529 NSCLC) was > 100 µM and the TGI (M19-MEL melanoma) was > 100 µM. The TGI (XF 498 CNS) was > 100 µM.

In the case of `O=C1CC(O)(c2ccccc2)C(c2ccccc2)=C1c1ccccc1` (configuration not stated), the TGI (DLD-1 colon) is reported as > 100 µM, the TGI (DMS 273 small cell lung) is reported as > 100 µM and the TGI (KM20L2 colon) is reported as > 100 µM. For the same molecule, the TGI (LXFL 529 NSCLC) was > 100 µM, the TGI (M19-MEL melanoma) was 91.4 µM and the TGI (SNB-78 CNS) was > 100 µM. It also gave a TGI (XF 498 CNS) of 73.5 µM.

`COC(=O)c1ccc(Cl)cc1NC(=O)C1CCCCC1` was tested, and the TGI (DMS 273 small cell lung) was > 100 µM, the TGI (KM20L2 colon) was > 100 µM and the TGI (LXFL 529 NSCLC) was > 100 µM. The TGI (M19-MEL melanoma) was > 100 µM and the TGI (SNB-78 CNS) was > 100 µM.

With `COc1ccc2oc(C(=O)O)c3c2c1CCC3` the TGI (DLD-1 colon) was > 100 µM, the TGI (DMS 273 small cell lung) was > 100 µM and the TGI (HOP-18 NSCLC) was > 100 µM. The TGI (KM20L2 colon) was > 100 µM, the TGI (LXFL 529 NSCLC) was > 100 µM and the TGI (M19-MEL melanoma) was > 100 µM. For the same molecule, the TGI (SNB-78 CNS) was > 100 µM and the TGI (XF 498 CNS) was > 100 µM.

`COc1ccc(OC(C(=O)O)c2ccccc2)c2c1CCCC2=O` (configuration not stated) was tested, and the TGI (DLD-1 colon) was > 100 µM, the TGI (DMS 273 small cell lung) was > 100 µM and the TGI (HOP-18 NSCLC) was > 100 µM. For the same molecule, the TGI (KM20L2 colon) was > 100 µM, the TGI (LXFL 529 NSCLC) was > 100 µM and the TGI (M19-MEL melanoma) was > 100 µM. For the same molecule, the TGI (RXF-631 renal) was > 100 µM, the TGI (SNB-78 CNS) was > 100 µM and the TGI (XF 498 CNS) was > 100 µM.

With `O=C1c2ccccc2C(=O)N1C/C=C/CO` the TGI (DLD-1 colon) was > 100 µM, the TGI (DMS 273 small cell lung) was > 100 µM and the TGI (HOP-18 NSCLC) was > 100 µM. The TGI (KM20L2 colon) was > 100 µM, the TGI (LXFL 529 NSCLC) was > 100 µM and the TGI (M19-MEL melanoma) was > 100 µM. The TGI (SNB-78 CNS) was > 100 µM.

With `c1ccc2c(c1)[nH]c1c2nc2ncccn21` the TGI (DLD-1 colon) was > 100 µM, the TGI (DMS 273 small cell lung) was > 100 µM and the TGI (KM20L2 colon) was > 100 µM. For the same molecule, the TGI (LXFL 529 NSCLC) was > 100 µM, the TGI (M19-MEL melanoma) was > 100 µM and the TGI (RXF-631 renal) was > 100 µM. The TGI (SNB-78 CNS) was > 100 µM and the TGI (XF 498 CNS) was > 100 µM.

For `CC1=C[P+](Cc2ccccc2)(c2ccccc2)CC1` (configuration not stated), the TGI (DLD-1 colon) was > 100 µM, the TGI (DMS 273 small cell lung) was > 100 µM and the TGI (HOP-18 NSCLC) was > 100 µM. For the same molecule, the TGI (KM20L2 colon) was > 100 µM, the TGI (LXFL 529 NSCLC) was > 100 µM and the TGI (M19-MEL melanoma) was > 100 µM. The TGI (SNB-78 CNS) was > 100 µM, the GI50 (XF 498 CNS) was 25 µM and the TGI (XF 498 CNS) was 78.2 µM.

`COc1cc(O)c2c(c1)C(=O)c1cc3c(c(O)c1C2=O)C(OC1OC(C)C(O)C(O)C1OC)C(OC)C(C)(O)C3=O` (configuration not stated) gave a TGI (DLD-1 colon) of 11.6 µM, a TGI (DMS 273 small cell lung) of 3.85 µM and a TGI (HOP-18 NSCLC) of 15.4 µM. For the same molecule, the TGI (KM20L2 colon) was 6 µM, the TGI (M19-MEL melanoma) was 1.83 µM and the TGI (P388/ADR leukemia) was 59.6 µM. The TGI (SN12K1 renal) was 7.14 µM, the TGI (SNB-78 CNS) was 16.1 µM and the TGI (XF 498 CNS) was 7.13 µM.

For `CNC(=O)c1cccc2c(Nc3ccc(NS(C)(=O)=O)cc3OC)c3cccc(C)c3nc12`, the TGI (DMS 273 small cell lung) was 1.69 µM, the TGI (HOP-18 NSCLC) was 3.36 µM and the TGI (KM20L2 colon) was 3.72 µM. For the same molecule, the TGI (LXFL 529 NSCLC) was 6.74 µM, the TGI (M19-MEL melanoma) was 8.54 µM and the TGI (P388/ADR leukemia) was 1.07 µM. For the same molecule, the TGI (SN12K1 renal) was 1.61 µM and the TGI (XF 498 CNS) was 3.25 µM.

With `CCOc1ccccc1NC(=O)CCc1n[nH]c(=S)o1` the TGI (DLD-1 colon) was > 100 µM, the TGI (DMS 273 small cell lung) was > 100 µM and the TGI (KM20L2 colon) was > 100 µM. For the same molecule, the TGI (LXFL 529 NSCLC) was > 100 µM, the TGI (M19-MEL melanoma) was > 100 µM and the TGI (SNB-78 CNS) was > 100 µM. The TGI (XF 498 CNS) was > 100 µM.

In the case of `O=S(O)CCCSSc1ccccc1`, the TGI (DLD-1 colon) is reported as > 100 µM, the TGI (DMS 273 small cell lung) is reported as > 100 µM and the TGI (HOP-18 NSCLC) is reported as > 100 µM. The TGI (KM20L2 colon) was > 100 µM, the TGI (LXFL 529 NSCLC) was > 100 µM and the TGI (M19-MEL melanoma) was > 100 µM. For the same molecule, the TGI (SNB-78 CNS) was > 100 µM and the TGI (XF 498 CNS) was > 100 µM.

In the case of `O=C(NC1C2CC3CC(C2)CC1C3)c1cc(/C=C/c2ccccc2)[nH]c(=S)n1` (configuration not stated), the TGI (DLD-1 colon) is reported as > 100 µM, the TGI (DMS 273 small cell lung) is reported as > 100 µM and the TGI (KM20L2 colon) is reported as > 100 µM. The TGI (LXFL 529 NSCLC) was > 100 µM, the TGI (M19-MEL melanoma) was > 100 µM and the TGI (RXF-631 renal) was > 100 µM. The TGI (SNB-78 CNS) was > 100 µM and the TGI (XF 498 CNS) was > 100 µM.

`COc1ccc2nc3ccccc3c(NCCCN(C)CCCl)c2c1` gave a TGI (DLD-1 colon) of 3.68 µM, a TGI (DMS 273 small cell lung) of 1.36 µM and a TGI (KM20L2 colon) of 2.5 µM. For the same molecule, the TGI (LXFL 529 NSCLC) was 1.53 µM, the TGI (M19-MEL melanoma) was 1.9 µM and the TGI (RXF-631 renal) was 2.15 µM. The TGI (SNB-78 CNS) was 2.27 µM and the TGI (XF 498 CNS) was 0.77 µM.
